System: G6PC2 expression
Assay: Stage 7 treatment, real-time PCR of G6PC2 (Example 6)
Assay type: cell-based, human
Conditions: Stage 7, day 7, 2 μM in Stage 7 medium, H1-derived cells, mRNA
Procedure: Cells of the human embryonic stem cell line H1 (WA01) were seeded as single cells at 1×10^5 cells/cm^2 on MATRIGEL™ (1:30 dilution) coated dishes in E8 media. At about 70 to 80% confluency, the cultures were washed in 1× incomplete DPBS followed by incubation with 1× TrypLET™ Express Enzyme for 3 to 5 minutes at 37° C. The released cells were rinsed with E8 and spun at 1000 rpm for 5 minutes. The resulting cell pellet was resuspended in E8 supplemented with 10 μM Y-27632 and the single cell suspension was seeded at approximately 1.3 to 1.5×10^5 cells/cm^2. The cultures were fed every day with E8 medium and differentiation, according to the following protocol, was initiated 48 hrs. following seeding resulting in an about 90% starting confluency.
Stage 6 cells were cultured for seven days in BLAR medium supplemented with a 1:100 dilution of ITS-X; 20 mM glucose (final); 1.5 g/L sodium bicarbonate; 2% FAF-BSA; 10 μg/ml of heparin, 10 μM ZnSO4, 1 μM T3 as 3,3′, 5-triiodo-L-thyronine sodium salt, 10 μM ALK5 inhibitor II, 1 mM N-acetyl cysteine. […]
At Stage 7, day 7, mRNA was collected and expression of MAFA, UCN3, PDX1, NKX6.1, insulin and G6PC2 evaluated as compared to undifferentiated human stem cells. […]

SMILES: Nc1nc(Nc2ccc3c(c2)CC[C@@H](N2CCCC2)CC3)nn1-c1cc2c(nn1)-c1ccccc1CCC2 [R428, 1H-1,2,4-Triazole-3,5-diamine, 1-(6,7-dihydro-5H-benzo[6,7]cyclohepta[1,2-c]pyridazin-3-yl) N3-[(7S)-6,7,8,9-tetrahydro-7-(1-pyrrolidinyl)-5H-benzocyclohepten-2-yl]-]
- G6PC2 expression: reduces other beta cell maturation markers
